Data from ChEMBL document CHEMBL1157539, “Thousands of chemical starting points for antimalarial lead identification” (Nature, 2010).

Test system: Plasmodium falciparum
Experiment: GSK_TCMDC: Inhibition of Plasmodium falciparum 3D7 in whole erythrocytes, using parasite LDH activity as an index of growth.
Type: functional, organism-based
Conditions: Plasmodium falciparum, 3D7

| SMILES | XC50 [nM] |
| --- | --- |
| O=C(Cn1c(SCc2cccc(F)c2F)cc(=O)c2ccccc21)N(CCN1CCCCC1)Cc1ccc(-c2ccc(C(F)(F)F)cc2)cc1 | 664 |
| CC(C)(C)N1CCC(N(Cc2ccc(-c3ccc(C(F)(F)F)cc3)cc2)C(=O)Cn2c(CCc3cccc(F)c3F)nc(=O)c3cccnc32)CC1 | 757 |
| Cc1[nH]c(C)c([N+](=O)[O-])c(=O)c1-c1ccc(Oc2ccc(OC(F)(F)F)cc2)cc1 | 247 |
| O=S(=O)(c1csc2ccccc12)N(CCC(O)(C(F)(F)F)C(F)(F)F)Cc1cccc(O)c1 | 360 |
| O=C(Nc1cc(F)cc(F)c1)N1CCOC(CCN2CCC(c3ccccc3)CC2)(c2ccc(Cl)c(Cl)c2)C1 (stereo not drawn) | 466 |
| CN1CCN(c2ccc(Cl)cc2NC(=O)C2COc3ccccc3O2)CC1 (stereo not drawn) | 810 |
| CC(=O)N1N=C(c2cccs2)Sc2c1nc(-c1ccc(Cl)cc1)n2C(C)=O | 736 |
| CC(=O)Nc1nc(C(=O)Nc2cccc(-c3cccc(-c4nc5cc(F)ccc5[nH]4)c3)c2)cs1 | 89.2 |
| FC(F)(F)c1ccc2[nH]c(-c3cccc(-c4cccc(CNCC5CCCO5)c4)c3)nc2c1 (stereo not drawn) | 422 |
| Cc1cc([N+](=O)[O-])ccc1NC(=O)Nc1cccc(C(F)(F)F)c1 | 721 |
| O=C(N[C@H]1CCN(Cc2ccc(OCCN3CCNCC3)c(Cl)c2)C1)c1ccc(Cl)c(Cl)c1 | 1060 |
| O=C(NC(Nc1ccc([N+](=O)[O-])cc1)C(Cl)(Cl)Cl)c1cccc(Cl)c1 (stereo not drawn) | 863 |
| CC(C)(C)c1ccc(C(=O)Nc2ccc(NC(=O)c3ccc([N+](=O)[O-])o3)cc2)cc1 | 844 |
| O=C(/C=C/c1cc(C(F)(F)F)ccc1F)NCCCCCN1CCC(c2c[nH]c3ccccc23)CC1 | 1130 |
| CC(C)(CNCc1ccc(Cl)cc1)c1nc(-c2ccc(Cl)c(O)c2)c(-c2ccncc2)[nH]1 | 476 |
| COc1ccc2nccc(N3CCN(CCNCc4ccc5c(n4)NC(=O)CO5)CC3)c2n1 | 885 |
| CC(Oc1ccc(Cl)cc1)C(=O)NCCC1CCN(CCCCCNC(=O)/C=C/c2ccc(Cl)c(Cl)c2)CC1 (stereo not drawn) | 1020 |
| CCN(CC)CCNC(=O)c1ccc(NC(=O)c2cc(-c3ccncc3)nc3ccccc23)cc1 | 770 |
| COc1ccc2ncc(C#N)c(CCN3CCC(NCc4ccc5c(c4)OCCO5)CC3)c2c1 | 910 |
| COc1ccccc1N1CCN(CCCCNC(=O)c2ccc(NC(=O)c3ccc(OC(F)(F)F)cc3)cc2)CC1 | 663 |
| Cc1ccc(-c2nc(N3CCN(C(=O)c4ccco4)CC3)c3ccccc3n2)cc1 | 970 |
| COC(=O)c1cccc(NC(=O)NC2CCN(c3ccnc(NCc4ccc(F)cc4)n3)CC2)c1 | 809 |
| CCc1cc(I)c2c(c1)C(NCCCNc1cc(=O)c3ccccc3[nH]1)CCN2 (stereo not drawn) | 887 |

| SMILES | XC50 [nM] |
| --- | --- |
| Clc1ccc2nnc(-c3c(Cl)cccc3Cl)n2n1 | 905 |
| O=C(C=Cc1ccccc1O)N1CCC(CN2CCC(c3c[nH]c4ccccc34)CC2)CC1 | 961 |
| Cc1cc(NCCc2cccc(F)c2)nc(NC(=N)Nc2cccc(C(F)(F)F)c2)n1 | 146 |
| O=C(Cc1ccsc1)NCC(c1ccccc1Cl)c1c[nH]c2ccccc12 (stereo not drawn) | 950 |
| CCCCCCCNCc1c(O)ccc2c(CNCCCCCCC)c(O)ccc12 | 150 |
| CC(C)(CNCCOc1ccc(Cl)cc1)c1nc(-c2ccnc(N)n2)c(-c2ccc(Cl)c(O)c2)[nH]1 | 834 |
| COc1ccc(C2CCN(CCCCNC(=O)c3ccc(NC(=O)c4ccc(Cl)cc4)cc3)C2)c(OC)c1 (stereo not drawn) | 1200 |
| COc1ccc(CNCCCCCNCc2ccc(Cl)c(Cl)c2)cc1Cl | 751 |
| C[C@@H](NC(=O)c1nn(-c2ccc(Cl)cc2)c(=O)c2ccccc12)C(C)(C)C | 1120 |
| COc1cc(CS(C)(=O)=O)ccc1Nc1nccc(-c2c(-c3cccc(NC(=O)c4c(F)cccc4F)c3)nn3ccccc23)n1 | 966 |
| O=C(Nc1ccc(C(F)(F)F)cc1)NC1CCN(c2ccnc3cc(Cl)ccc23)C1 (stereo not drawn) | 139 |
| CCOC(=O)c1ccc(NC(=O)NNC(=O)c2ccc(CCN3CCC(c4nc(COCC(F)(F)F)c(-c5ccc(F)cc5)o4)CC3)cc2)cc1 | 574 |
| Cc1ccc(O)cc1Nc1ccnc2cc(-c3csc(CN(C)CCN(C)C)n3)ccc12 | 789 |
| CCCCCC(C)C(C)c1cc(O)c2c(c1)OC1(C(C)C)CC(O)C(C)C2C1 (stereo not drawn) | 985 |
| COC(=O)c1ccc2[nH]cc(C3CCN(CCC4CCN(C(=O)/C=C/c5ccc(Cl)c(Cl)c5)CC4)CC3)c2c1 | 512 |
| COc1ccc2ccccc2c1CNCCCCCCNCc1c(OC)ccc2ccccc12 | 712 |
| Cc1ccc2[nH]c(/C=C/c3cccc4cc[nH]c34)nc2c1 | 1180 |
| O=C(Nc1cccc(CN2CCN(Cc3ccc(O)cc3)CC2)c1)c1ccc(Cl)c(Cl)c1 | 253 |
| O=C(Nc1cccc(CN2CCN(C(=O)c3ccccc3)CC2)c1)c1ccco1 | 886 |
| O=C(Nc1cccc(CN2CCCN(Cc3ncc[nH]3)CC2)c1)c1cc2ccccc2s1 | 734 |
| CCCC(=O)Nc1ccc(OCCCCN(Cc2ccccc2C(F)(F)F)c2ccc(C(F)(F)F)c(C#N)c2)cc1 | 973 |
| CC(=O)Nc1nc(C(=O)Nc2ccc(-c3ccc(-c4nc5ccccc5[nH]4)cc3)cc2)cs1 | 150 |
| CCCNC(=O)C1CCN(C(c2ccccc2)c2ccc(Cl)c(Cl)c2)CC1 (stereo not drawn) | 708 |

| SMILES | XC50 [nM] |
| --- | --- |
| CC(C)COc1ccc(C(O)C(CN2CCCCC2)c2ccccc2)cc1 (stereo not drawn) | 923 |
| Cc1cc(C)c(C)c(OCCCON2C(=N)N=C(N)NC2(C)C)c1C | 3.2 |
| CCn1cc2c3c(cc(C(=O)N[C@@H](Cc4ccccc4)[C@H](O)CNC4CCOCC4)cc31)N(C)S(=O)(=O)CC2 | 208 |
| O=C(NC1CCN(Cc2ccccc2)CC1)c1cccc(Nc2nc(-c3ccccc3)cs2)c1 | 1030 |
| O=C(/C=C/c1ccc(Cl)c(Cl)c1)NCCCCCN1CCC(NC(=O)Nc2ccccc2Cl)CC1 | 714 |
| O=C(/C=C/c1ccc(Cl)c(Cl)c1)NCCCCCCN1CCCN(C(=O)Nc2ccc(F)c(Cl)c2)CC1 | 738 |
| Clc1ccc(OC2CCC(Cn3ccnc3)(c3ccc(Cl)cc3Cl)CC2)c(Cl)c1 (stereo not drawn) | 800 |
| CCCc1cc(NC2CCN(C)CC2)nc(Nc2cccc(OC)c2)n1 | 765 |
| Cc1ccc(CNC(=O)[C@H](CCCN)Nc2cc(C)nc(NCC3CCCCC3)n2)cc1 | 1220 |
| CC(C)(CNC(=O)C1CCN(CCOc2ccc(Cl)cc2)CC1)c1nc(-c2ccc(Cl)c(O)c2)c(-c2ccncc2)[nH]1 | 709 |
| CCOc1cc[nH]c(=O)n1 | 458 |
| COc1ccc(Cc2nc(/N=C(\N)Nc3ccccc3)ccc2OC)cc1 | 852 |
| CCCN/C=N/c1cc(-c2csc(NC(=N)N)n2)cc([N+](=O)[O-])c1 | 1740 |
| Cc1ccc(-c2cc(C(=O)Nc3ccc(S(=O)(=O)N4CC(C)OC(C)C4)cc3)[nH]n2)c(O)c1 (stereo not drawn) | 608 |
| Cc1cccc2nc(-c3cccc(-c4ccc(NC(=O)Nc5ccc(Cl)cc5)cc4)c3)[nH]c12 | 199 |
| CN(C)C(=S)N/N=C1/C(=O)Nc2ccc(OC(F)(F)F)cc21 | 1020 |
| O=C(NC1CCN(c2ccnc3ccccc23)C1)c1ccc(OC(F)(F)F)cc1 (stereo not drawn) | 1150 |
| COc1cccc(C(=O)N2CCN(Cc3cccc(NC(=O)c4cccs4)c3)CC2)c1 | 483 |
| NC(=O)CN1CC=C(c2c[nH]c3ccc(Br)cc23)CC1 | 1100 |
| O=C(/C=C/c1ccc(Cl)c(Cl)c1)NCCCCCN1CCC(NC(=O)Nc2ccccc2F)CC1 | 839 |
| COc1ccc2nccc([C@@H](O)CN3CCC(NCc4ccc5c(n4)NC(=O)CS5)C(F)C3)c2c1 (stereo partly drawn) | 912 |
| O=C(/C=C/c1ccc(Cl)c(Cl)c1)NCCCCCN1CCC(c2n[nH]c(-c3ccccc3)c2Br)CC1 | 723 |
